Assay results: patent publication US8404848B2, “Derivatives of imidazo[1,2-a]pyridine-2-carboxamides, preparation method thereof and use of same in therapeutics” (Sanofi, priority 2006, dated 2013)

What was measured:
[1] = target: T1, mouse Nurr1 receptor (Mus musculus, UniProt Q06219); assay: In vitro activity on N2A cells (NBRE-luciferase reporter); format: cell-based; conditions: N2A cell line endogenously expressing mouse Nurr1, stably transfected with 8NBRE-luciferase; 24 hours incubation
T1 construct: On a cell line (N2A) endogenously expressing the mouse Nurr1 receptor; host or cells: Neuro-2A (N2A) mouse neuroblastoma cells stably transfected with 8NBRE-luciferase
Procedure: Evaluation of the In Vitro Activity on N2A Cells
On a cell line (N2A) endogenously expressing the mouse Nurr1 receptor and stably transfected with the NOT binding response element (NBRE) coupled to the luciferase reporter gene. The EC50 values are between 0.01 and 1000 nM. The assays were carried out according to the procedure described below.
The Neuro-2A cell line comes from a standard commercial source (ATCC). The Neuro-2A clone was obtained, from a spontaneous tumor originating from an A albino mouse strain, by R. J Klebe et al. This Neuro-2A line is subsequently stably transfected with 8NBRE-luciferase. The N2A-8NBRE cells are cultured until confluence in 75 cm^2 culture flasks containing DMEM supplemented with 10% of fetal calf serum, 4.5 g/l of glucose and 0.4 mg/ml of geneticin. After a week of culture, the cells are recovered with 0.25% trypsin for 30 seconds and then resuspended in DMEM without phenol red, containing 4.5 g/l of glucose and 10% of Hyclone delipidized serum, and deposited into transparent-bottom 96-well white plates. The cells are deposited at a rate of 60 000 per well in 75 μl for 24 hours before the addition of the products. The products are applied in 25 μl and incubated for a further 24 hours. On the day of the measurement, an equivalent volume (100 μl) of Steadylite is added to each well and then left for a period of 30 minutes in order to obtain complete cell lysis and maximum signal production. The plates are subsequently measured in a luminescence counter for microplates after having been sealed with an adhesive film. The products are prepared in the form of a stock solution at 10^−2M and then diluted in 100% of DMSO. Each product concentration is prediluted in culture medium before incubation with the cells, thus containing 0.625% final concentration of DMSO.

[2] = tested on: human NOT receptor; assay: Binding to the human NOT receptor by SPR (surface plasmon resonance); conditions: Biacore S51, immobilized GST-NOT whole protein and NOT ligand-binding domain, 3.75 to 0.1 μM, 4° C.
Procedure: Evaluation of the Binding to the Human NOT Receptor
The direct binding between compounds of the invention and the human NOT receptor was evaluated using SPR (surface plasmon resonance) technology. In this assay, the protein is immobilized covalently at the matrix and the molecule to be studied is injected into the chamber comprising the sensor chip. The signal is directly proportional to the amount of product bound to the protein. The binding assays were carried out in a Biacore S51 instrument (Biacore Inc., Piscataway, N.J.). The GST-NOT (NOT-FL) whole protein was provided by Invitrogen (PV3265). The NOT ligand-binding domain (His-Thr-NOT 329-598) was expressed and purified as described in Nature, 423, 555-560. The two proteins, diluted to a concentration of 20 μg/ml in an acetate buffer, pH 5.0, containing 5 mM of DTT, were immobilized on a carboxymethyl 5′ dextran surface (CM5 sensor chip, Biacore Inc.) by amine coupling according to the protocol recommended by Biacore, elution being carried out with an HBS-N buffer (10 mM HEPES, 0.15 M NaCl, […], pH 7.4). Approximately 10 000-15 000 resonance units (RU) of the proteins are captured on the surface of the CM5 sensor chip. […] The dissociation was recorded for 5 minutes without any other procedure for regenerating the surface. […]

T1 sequence (Q06219 whole entry): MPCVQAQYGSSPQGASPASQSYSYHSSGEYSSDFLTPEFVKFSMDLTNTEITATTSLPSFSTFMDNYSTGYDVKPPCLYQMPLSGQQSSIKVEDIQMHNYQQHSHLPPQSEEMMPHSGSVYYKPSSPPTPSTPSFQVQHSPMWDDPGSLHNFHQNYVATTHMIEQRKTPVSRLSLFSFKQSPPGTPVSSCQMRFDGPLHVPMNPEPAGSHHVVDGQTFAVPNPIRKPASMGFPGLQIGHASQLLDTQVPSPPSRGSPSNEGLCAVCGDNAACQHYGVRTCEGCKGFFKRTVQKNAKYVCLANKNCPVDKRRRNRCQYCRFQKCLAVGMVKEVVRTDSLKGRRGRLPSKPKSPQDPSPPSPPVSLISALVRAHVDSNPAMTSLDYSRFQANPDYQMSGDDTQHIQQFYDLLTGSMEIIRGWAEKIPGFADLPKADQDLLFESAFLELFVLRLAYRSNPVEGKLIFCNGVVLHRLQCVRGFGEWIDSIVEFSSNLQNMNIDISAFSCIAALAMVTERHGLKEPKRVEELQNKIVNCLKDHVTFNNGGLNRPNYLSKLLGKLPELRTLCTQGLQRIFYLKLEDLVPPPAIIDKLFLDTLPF

SMILES	EC50 [1]	affinity (direct binding, classified by maximum binding level and kinetic parameters) [2]
COc1ccc2nc(C(=O)Nc3ccccc3)cn2c1 [Compound 29, 6-Methoxy-N-phenylimidazo[1,2-a]pyridine-2-carboxamide]	1.3 nM	–
O=C(Nc1ccccc1F)c1cn2cc(-c3cccc(CO)c3)ccc2n1 [Compound 67, N-(2-Fluorophenyl)-6-[3-(hydroxymethyl)phenyl]imidazo[1,2-a]pyridine-2-carboxamide]	0.7 nM	–
CC(C)(O)c1ccc2nc(C(=O)Nc3ccccc3)cn2c1 [Compound 4, 6-(1-Hydroxy-1-methylethyl)-N-phenylimidazo[1,2-a]pyridine-2-carboxamide]	0.66 nM	–
CN(C)c1ccc2nc(C(=O)Nc3cc(F)ccc3F)cn2c1 [Compound 58, N-(2,5-Difluorophenyl)-6-(dimethylamino)imidazo[1,2-a]pyridine-2-carboxamide]	1.3 nM	–
O=C(Nc1ccccc1)c1cn2cc(-c3ccccc3)ccc2n1 [Compound 7, N,6-Diphenylimidazo[1,2-a]pyridine-2-carboxamide]	0.9 nM	moderate

Compounds with a lower EC50 [1], results first:

EC50 [1]	affinity (direct binding, classified by maximum binding level and kinetic parameters) [2]	SMILES
0.3 nM	–	Cc1ccc2nc(C(=O)Nc3ccccc3)cn2c1C [Compound 43, 5,6-Dimethyl-N-phenylimidazo[1,2-a]pyridine-2-carboxamide]
0.16 nM	–	O=C(Nc1ccccc1)c1cn2cc(N3CCC3)ccc2n1 [Compound 70, 6-(Azetidin-1-yl)-N-phenylimidazo[1,2-a]pyridine-2-carboxamide]
0.6 nM	low	Cc1ccc2nc(C(=O)Nc3ccccc3)cn2c1 [Compound 19, 6-Methyl-N-phenylimidazo[1,2-a]pyridine-2-carboxamide]
0.06 nM	–	C=C(C)c1ccc2nc(C(=O)Nc3ccccc3)cn2c1 [Compound 32, 6-Isopropenyl-N-phenylimidazo[1,2-a]pyridine-2-carboxamide]
